Experimental data: patent publication US20260207535A1, “CRIBLAGE INHIBITEURS USP8” (COMMISSARIAT A L'ENERGIE ATOMIQUE ET AUX ENERGIES …, priority 2022, published 2026)

Assays:
[1] = molecular target: T1, Full length USP8 (USP8FL) (Homo sapiens, UniProt P40818); test: USP8FL (full length USP8) enzymatic inhibition, Ub-Rhodamine 110 hydrolysis in L-cysteine buffer; assay type: biochemical; conditions: USP8 FL 75 nM, Ub-Rho 0.1 μM, L-cysteine buffer; read-out: USP8FL inhbition IC50 [μM] (CI: Confidence Interval)
T1 construct: purchased BostonBiochem E-520
T1 sequence (P40818 1-1118): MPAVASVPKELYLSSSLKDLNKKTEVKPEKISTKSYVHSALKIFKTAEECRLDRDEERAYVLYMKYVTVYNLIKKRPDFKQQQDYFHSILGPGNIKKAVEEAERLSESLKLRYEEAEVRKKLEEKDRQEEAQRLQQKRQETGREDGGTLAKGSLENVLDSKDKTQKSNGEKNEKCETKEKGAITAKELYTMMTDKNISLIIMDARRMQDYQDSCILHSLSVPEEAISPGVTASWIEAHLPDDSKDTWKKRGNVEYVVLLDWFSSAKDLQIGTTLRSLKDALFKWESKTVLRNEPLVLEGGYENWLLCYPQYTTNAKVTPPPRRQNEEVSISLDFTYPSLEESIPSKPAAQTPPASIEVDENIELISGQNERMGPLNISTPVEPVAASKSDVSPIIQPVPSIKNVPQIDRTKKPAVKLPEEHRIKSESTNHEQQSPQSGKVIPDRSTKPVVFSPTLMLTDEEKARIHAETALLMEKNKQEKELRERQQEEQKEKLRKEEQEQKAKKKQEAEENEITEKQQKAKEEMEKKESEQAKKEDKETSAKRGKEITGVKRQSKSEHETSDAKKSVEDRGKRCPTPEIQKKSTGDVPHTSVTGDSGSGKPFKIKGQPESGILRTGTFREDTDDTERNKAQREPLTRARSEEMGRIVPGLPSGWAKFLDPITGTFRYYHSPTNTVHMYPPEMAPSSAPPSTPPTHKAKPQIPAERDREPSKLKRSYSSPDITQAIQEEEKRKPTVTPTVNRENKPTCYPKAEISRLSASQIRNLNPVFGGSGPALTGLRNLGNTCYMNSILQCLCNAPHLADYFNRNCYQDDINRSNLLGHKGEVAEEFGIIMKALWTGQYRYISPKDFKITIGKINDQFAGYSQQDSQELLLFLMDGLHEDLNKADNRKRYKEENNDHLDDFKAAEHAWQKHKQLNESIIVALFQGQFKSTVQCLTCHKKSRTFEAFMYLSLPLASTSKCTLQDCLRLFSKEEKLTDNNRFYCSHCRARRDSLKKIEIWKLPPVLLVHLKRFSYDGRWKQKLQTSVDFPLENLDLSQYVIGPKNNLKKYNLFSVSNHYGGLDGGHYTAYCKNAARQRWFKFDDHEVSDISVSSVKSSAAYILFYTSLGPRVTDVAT
Protocol: USP8 FL (USP8 Full Length) was incubated at a concentration of 75 nM in the presence of Ub-Rho (UBIQUIGENT ref. 60-0117-050) at a final concentration of 0.1 μM, in conditions ensuring linearity of enzyme activity throughout the assay in a specific buffer. Compounds were added to the reaction mix at different doses just before the substrate. The enzymatic reaction kinetics were monitored by measuring fluorescence elicited by the hydrolysis of Ub-Rho over 30 min.
In this setup, an in-house purified catalytic domain of USP8 (USP8CD) was used at a concentration of 80 nM in the presence of the artificial substrate Ubiquitin-Rhodamine 110 (Ub-Rho) (ref: 60-0117-050 Ubiquigent) at a final concentration of 0.1 μM, in conditions ensuring linearity of enzyme activity throughout the assay incubation time. Enzymatic assay was performed in a Tris HCl buffer (40 mM Tris HCl pH 7.4, Ovalbumine 0.5 mg/ml, Cysteine HCl 5.5 mM). Compounds to be tested were added to the reaction mix and incubated with enzyme for 20 min, before the substrate. The enzymatic reaction kinetics were monitored by measuring fluorescence elicited by the hydrolysis of the peptidyl Ub-Rho over 30 minutes. The negative control was the solvent DMSO at 1%.
Full length USP8 (USPBFL) (BostonBiochem ref. E-520) were used at a concentration of 75 nM in the presence of a ubiquitin substrate, i.e., the Ub-Rhodamine 110 (Ub-Rho) (Ubiquigent ref. 60-0117-050) at a final concentration of 0.1 μM. Enzymatic assays were performed as described for USP8-CD except that USP-FL was used at a concentration of 75 nM. The compounds were used at a final concentration of 0.1, 1, 5, 10, 50 and 100 μM in DMSO 0.5%. The USP8 catalytic activity was monitored both before adding the substrate (TO) and after twenty minutes of incubation at room temperature (Final Time TF). The enzymatic reaction kinetics were monitored by measuring fluorescence elicited by the hydrolysis of the Ub-Rho bound over 30 minutes.

AtT-20 pituitary cells = test: Inhibition of ACTH secretion in pituitary cells (ACTH EIA on supernatant); assay type: cell-based, mouse; conditions: 25 μM, 24-hour treatment; for activity at 25 µM: Mus musculus, AtT20, AtT-20 supernatant, read-out: ACTH secretion % of control (DMSO) at 25 μM
Protocol: ACTH release (percent comparison to DMSO control). Briefly, 12,500 AtT-20 cells per well were seeded in a 96-well plate. After 24 hours exposure, cells were treated with each compound at the indicated final concentration, or with DMSO alone (control condition compound solvent) or with corticotropin releasing factor (indicated CRF) at 100 nM. After a 24-hour treatment, cell supernatants were collected and stored at −80° C., prior to quantification of ACTH concentration using ACTH chemiluminescent EIA kit (Phoenix Pharmaceuticals, Inc.). Determination of ACTH concentrations was based on the best-fitting ACTH standard curve and P values were calculated using one-way ANOVA, using Prism 9 software (GraphPad Software, Inc.) ns (P=0.12). **P<0.002. ***P<0.001. All compounds were tested in technical triplicates. One representative experiment out of three is presented.
FIG. 4: illustrates a decrease of ACTH secretion by AtT-20 cells after 24-hour treatment of halogenated salicylanilides. 12,500 AtT-20 cells per well were seeded in a 96-well plate. […] After a 24-hour treatment, cell supernatants were collected and stored at −80° C., prior to quantification of ACTH concentration using ACTH chemiluminescent EIA kit (Phoenix Pharmaceuticals, Inc.). Determination of ACTH concentrations was based on the best-fitting ACTH standard curve and P values were calculated by ordinary one-way ANOVA using Prism 6 software (GraphPad Software, Inc), ns (not significant), **** P<0.0001. Compounds were tested in technical triplicates.
12,500 AtT-20 cells per well were seeded in a 96-well plate. After 24 hours, cells were treated with compounds (corresponding chemical formula are indicated in Table 1) at 25 μM final concentration, or with DMSO alone (compound solvent). After a 24-hour treatment, cell supernatants were collected and stored at −80° C., prior to quantification of ACTH concentration using ACTH chemiluminescent EIA kit (Phoenix Pharmaceuticals, Inc.). Determination of ACTH concentrations was based on the best-fitting ACTH standard curve and P values were calculated by ordinary one-way ANOVA using Prism 6 software (GraphPad Software, Inc), ns (not significant), *P<0.05, ***P<0,0001. Compounds were tested in technical triplicates.
Mouse AtT-20 pituitary cell line were used as a powerful and well-characterized model to monitor ACTH secretion using an enzyme immunoassay (EIA) kit.
Mouse AtT-20 cells were obtained from the American Type Culture Collection and maintained on DMEM containing 10% fetal bovine serum, 100 μg/mL streptomycin and 100 U/mL penicillin at 37° C. with 5% CO2 after recovery from long-term storage on liquid nitrogen-vapor phase.
The ACTH secretion levels of AtT-20 cell culture was monitored on the supernatant of AtT-20 cells treated or not by increasing doses of compounds belonging to the family of halogenated salicylanilides chemicals.
1.25×10^4 AtT20 cells were seeded on polylysine-coated 96-well culture vessels on 150 μL of complete medium. After 24 hours, cells were treated with stock compounds to a final DMSO concentration of 0.5%. After 24 hours of treatment, cell culture supernatant was collected, cleared for 10 min at 1000×g at 4° C., diluted or not in assay buffer (Phoenix Peptide ACTH EIA EK-001-21) and frozen at −80° C. for subsequent processing according to the instructions of the kit's manufacturer.

AtT-20 cells = test: Cytotoxicity towards AtT-20 cells (PrestoBlue viability assay); conditions: 25 μM, 24-hour exposure
Excerpt: The AtT-20 cells viability was monitored in the conditions used to follow ACTH secretion. The viability of treated cells was concomitantly evaluated using a Cell Viability Reagent (monitoring of the cells' reducing capacity) (PrestoBlue® assay, Molecular Probes) with the aim to determine non-toxic doses of cell treatment.
After the collection of the supernatant sample for the ACTH assay in the previous step, cells were supplemented with the PrestoBlue™ cell viability reagent (Invitrogen™ A13261) at 10% final volume, and re-incubated at 37° C. for 30 minutes. Fluorescence was then read with a FLUOstar OPTIMA microplate reader.

Structure (SMILES)	IC50 [1]	inhibition of ACTH at 25 μM, in words (FIG. 4, FIG. 5) (AtT-20 pituitary cells)	activity at 25 µM (AtT-20 pituitary cells)	AtT-20 cell viability (PrestoBlue assay) % of control (DMSO) at 25 μM Mean (SD) (AtT-20 cells)
O=C(Nc1cc(Cl)cc(Cl)c1O)c1c(O)c(Cl)cc(Cl)c1Cl [Oxyclozanide, reference compound]	7.68 µM	significant inhibition	41%	98.08 (14.38) %
O=C(Nc1ccc(O)cc1)c1cc(I)ccc1O [Z69118571]	> 100 µM	ineffective	101%	106.7 (20.87) %
CC(=O)Oc1c(I)cc(I)cc1C(=O)Nc1ccc(Cl)cc1 [Clioxanide, reference compound]	33.2 µM	significant inhibition	57%	94.21 (12.30) %
O=C(Nc1cc(Cl)ccc1Cl)c1cc(I)cc(I)c1O [Amb8477378]	13 µM	significant inhibition	41%	95.72 (11.42) %

Now from value to compound, other results behind:

IC50 [1]	Structure (SMILES)	inhibition of ACTH at 25 μM, in words (FIG. 4, FIG. 5) (AtT-20 pituitary cells)	activity at 25 µM (AtT-20 pituitary cells)	AtT-20 cell viability (PrestoBlue assay) % of control (DMSO) at 25 μM Mean (SD) (AtT-20 cells)
14.6 µM	Cc1ccc(NC(=O)c2cc(I)cc(I)c2O)cc1 [Amb8477380]	significant inhibition	66%	93.51 (11.59) %
3.41 µM	Cc1ccc(C(=O)c2cc(NC(=O)c3cc(I)cc(I)c3O)ccc2Cl)cc1 [Amb4103735]	significant inhibition	58%	109.4 (18.18) %
